Source: patent EP2442784B1, “COMPOSITIONS AND METHODS FOR INHIBITING PAR2 ACTIVATION OF KERATINOCYTES” (THE PROCTER & GAMBLE COMPANY, priority 2010, dated 2012)

Biological target: T1, PAR-2 receptor (Homo sapiens, UniProt P55085)
T1 construct: host or cells: engineered cell line from DiscoveRx
T1 sequence (P55085 26-397): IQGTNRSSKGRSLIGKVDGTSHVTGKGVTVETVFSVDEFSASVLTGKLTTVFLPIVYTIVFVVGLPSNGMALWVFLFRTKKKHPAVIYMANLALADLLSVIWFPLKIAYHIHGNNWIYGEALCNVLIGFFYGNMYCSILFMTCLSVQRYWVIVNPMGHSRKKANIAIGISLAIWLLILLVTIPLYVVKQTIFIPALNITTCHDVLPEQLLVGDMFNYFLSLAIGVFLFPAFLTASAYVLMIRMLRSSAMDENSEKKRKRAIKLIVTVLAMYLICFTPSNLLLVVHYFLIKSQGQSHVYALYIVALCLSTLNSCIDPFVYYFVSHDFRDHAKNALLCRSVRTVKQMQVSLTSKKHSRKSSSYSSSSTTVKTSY
Experiment: PAR-2 Inhibition Assay (beta arrestin recruitment / beta galactosidase complementation, luminescence; PAR2 activation by trypsin)
Type: cell-based
Conditions: for PAR2 inhibitory effect (summary in words): over the dilution factors tested; for percent inhibition of PAR2 activation: activation by trypsin, triplicate
Text: PAR-2 Inhibition Assay - The assay principle relies on the recruitment of beta arrestin to the activated PAR-2 receptor resulting in the formation of an active beta galactosidase enzyme which can cleave a substrate causing a luminescent signal that can be quantitated. PAR-2 can be activated by either adding trypsin and also by adding SLIGRL peptide.
Cells expressing PAR-2 receptor coupled to the alpha fragment of beta galactosidase and expressing beta arrestin coupled to the beta fragment of beta galactosidase are obtained from DiscoveRx Corp., Freemont, CA. Cells are propagated in a culture medium of Dulbeccos Modified Eagle Medium supplemented with 10% heat-inactivated fetal bovine serum, 500 unit/mL penicillin, 500 ug/mL streptomycin, 800 ug/mL gentimicin, and 300 ug/mL hygromycin in T75 or T150 culture flasks (all media components available from Invitrogen Corp., Carlsbad, CA) in a CO2 incubator at 37°C. When cells reach approximately 80% confluency, the cells are detached from the flask using Cell Dissociation Buffer (available from Invitrogen Corp., Carlsbad, CA as item number 13151-014). The cells are counted using a hemocytometer and plated into 384 well plates at 10000 cells/well in 20 uL/well of Opti-MEM® media (available from Invitrogen Corp., Carlsbad, CA). The cells are cultured for 24 -48 hours.
To assay potential inhibitors of PAR2 activation by trypsin, each well is treated with 1 uL of the test material in water. Each test material is run in triplicate. The cells are incubated for 30 minutes in the CO2 incubator, after which 1 uL of trypsin is added (approximate 0.1 ug/uL). The cells are incubated for an hour in the CO2 incubator after which the cell lysis substrate solution (11 uL/well) is added. The lysis substrate solution is available in the PathHunter™ Detection Kit (catalogue #93-0001) from DiscoveRx Corp., Freemont, CA, in which the components are mixed in the following ratio: • Assay Buffer: Substrate 1: Substrate 2 = 19:5:1 The plates are briefly centrifuged (approximately 5 minutes) at 800 X g to remove bubbles and are then incubated at room temperature for 1 hr. Luminescence is read for each well on an Envision™ 2101 Multilabel Reader (available form PerkinElmer, Inc., Boston, MA). The range is determined by wells with solvent control + trypsin (high control) and by wells with solvent control and no trypsin (low control). The percent PAR2 inhibition of each treatment is calculated by the following formula of the luminescence signals: (1-([treatment luminescence-low control luminescence])/([high control luminescence-low control luminescence])) × 100 [formula] Statistics are done in Excel by Microsoft, Redmond, WA, using the T-test function, single tail with uneven distribution functions.
Using the assay outlined above, various concentrations and combinations of Laminaria Saccharina extract (e.g., Phlorogine), N-acyl Amino Acid (e.g., Sepiwhite), and vitamin B3 (e.g., niacinamide) were tested. Stock compositions of 1% Phlorogine (i.e., composition comprises approximately 0.025% - 0.01% Laminaria Saccharina extract), 1% Sepiwhite, 5% niacinamide, and combinations thereof are prepared and diluted prior to use. Test runs are performed at dilution factors of 0.045, 0.023, and 0.006. For clarity purposes, the 1% Sepiwhite composition diluted at a factor of 0.045 yields a test compositing comprising 0.045% Sepiwhite.

[1] = stock composition diluted at dilution factor 0.006
[2] = stock composition diluted at dilution factor 0.023
[3] = stock composition diluted at dilution factor 0.045 (e.g. 0.045% Sepiwhite), 100% = control without trypsin

SMILES | PAR2 inhibitory effect (summary in words) | percent inhibition of PAR2 activation [1] [%] | percent inhibition of PAR2 activation [2] [%] | percent inhibition of PAR2 activation [3] [%]
C=CCCCCCCCCC(=O)N[C@@H](Cc1ccccc1)C(=O)O [1% Sepiwhite, N-undecylenoyl-L-phenylalanine] | inhibitory effect which is pronounced at higher dilutions | 14 | 35 | 53
NC(=O)c1cccnc1 [5% Niacinamide, niacinamide] | inhibitory effect which is pronounced at higher dilutions | 5 | 14 | 20
